± gives the standard deviation of the averaged measurements.
What was measured:
AFATINIB = compound: CN(C)C/C=C/C(=O)Nc1cc2c(Nc3ccc(F)c(Cl)c3)ncnc2cc1O[C@H]1CCOC1 [AFATINIB]; test: surviving fraction relative to DMSO-only wells; higher = less growth inhibition; settings: exposure time: 5 days
Method in brief: (§1)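 At 250–500 cells per well in 384-well plates, log-phase tumour cell lines were seeded and, 24 hours on, exposed continuously for five days to inhibitors at 0.5, 1, 5, 10, 50, 100, 500 and 1000 nM. Viability readout was CellTiter-Glo luminescence, reported as surviving fraction normalised to the median of DMSO-only wells.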

MDV3100 [1] = compound: T1, CNC(=O)c1ccc(N2C(=S)N(c3ccc(C#N)c(C(F)(F)F)c3)C(=O)C2(C)C)cc1F [MDV3100]; test: as above; settings: exposure time: 5 days
Method in brief: as §1

SNX-5422 = compound: CC1(C)CC(=O)c2c(C(F)(F)F)nn(-c3ccc(C(N)=O)c(N[C@H]4CC[C@H](OC(=O)CN)CC4)c3)c2C1 [SNX-5422]; test: area under dose-response curve of surviving fraction (unscaled, Aref=0) (surviving fraction x log10(nM)); higher = more resistant; settings: exposure time: 5 days; dose range 0.5-1000 nM
Method in brief: (§2)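 Inhibitor was applied to tumour cell lines at eight concentrations (0.5 to 1000 nM) for five days in 384-well plates. Luminescence from CellTiter-Glo, scaled to DMSO-only wells, gave surviving fractions in three screens per line, and these were fitted by 3-parameter logistic regression with the drc R package. The area under the curve is an unscaled activity area. Aref was 0, and dose was on a log10 scale.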

BI-2536 = compound: CC[C@@H]1C(=O)N(C)c2cnc(Nc3ccc(C(=O)NC4CCN(C)CC4)cc3OC)nc2N1C1CCCC1 [BI-2536]; test: as above; settings: exposure time: 5 days; dose range 0.5-1000 nM
Method in brief: as §2

MDV3100 [2] = compound: T1, MDV3100; test: as above; settings: exposure time: 5 days; dose range 0.5-1000 nM
Method in brief: as §2

TIOGUANINE = compound: Nc1nc2[nH]cnc2c(=S)[nH]1 [TIOGUANINE]; test: as above; settings: exposure time: 5 days; dose range 0.5-1000 nM
Method in brief: as §2

Test System	surviving fraction (AFATINIB; 0.5 nM)	surviving fraction (AFATINIB; 1 nM)	surviving fraction (AFATINIB; 5 nM)	surviving fraction (AFATINIB; 10 nM)	surviving fraction (AFATINIB; 50 nM)	surviving fraction (AFATINIB; 100 nM)	surviving fraction (AFATINIB; 500 nM)	surviving fraction (AFATINIB; 1000 nM)	surviving fraction (MDV3100 [1]; 0.5 nM)	surviving fraction (MDV3100 [1]; 1 nM)	surviving fraction (MDV3100 [1]; 5 nM)	surviving fraction (MDV3100 [1]; 10 nM)	surviving fraction (MDV3100 [1]; 50 nM)	surviving fraction (MDV3100 [1]; 100 nM)	surviving fraction (MDV3100 [1]; 500 nM)	surviving fraction (MDV3100 [1]; 1000 nM)	area under dose-response curve (SNX-5422)	area under dose-response curve (BI-2536)	area under dose-response curve (MDV3100 [2])	area under dose-response curve (TIOGUANINE)
HCC70 BREAST	1.02 ± 0.064	0.981 ± 0.067	1 ± 0.015	0.965 ± 0.092	0.967 ± 0.022	1.02 ± 0.093	0.962 ± 0.016	0.827 ± 0.1	0.994 ± 0.021	0.955 ± 0.052	0.992 ± 0.085	0.963 ± 0.16	1.06 ± 0.082	0.979 ± 0.051	0.975 ± 0.076	0.88 ± 0.058	2.19	2	3.28	3.37
HCC1395 BREAST	1.05 ± 0.14	1.14 ± 0.1	1.03 ± 0.043	1.13 ± 0.046	1.01 ± 0.15	1.12 ± 0.026	1.05 ± 0.23	0.92 ± 0.12	1.18 ± 0.027	1.14 ± 0.089	1.24 ± 0.075	1.08 ± 0.19	1.18 ± 0.15	1.1 ± 0.15	1.18 ± 0.16	1.16 ± 0.024	3.15	2.69	3.87	3.56
HCC1806 BREAST	1.1 ± 0.084	1 ± 0.038	0.893 ± 0.071	0.726 ± 0.075	0.57 ± 0.045	0.586 ± 0.028	0.401 ± 0.036	0.343 ± 0.03	1.01 ± 0.032	1.07 ± 0.067	1.13 ± 0.045	0.993 ± 0.074	1.14 ± 0.045	1.12 ± 0.049	1.04 ± 0.051	1.03 ± 0.06	1.85	0.671	3.52	3.5
HELA CERVIX	1.08 ± 0.041	1.09 ± 0.049	1.06 ± 0.082	1.02 ± 0.022	1.19 ± 0.028	1.2 ± 0.018	1.22 ± 0.075	1.1 ± 0.045	0.931 ± 0.035	0.923 ± 0.0096	0.929 ± 0.023	0.888 ± 0.036	0.999 ± 0.034	1.02 ± 0.065	1.08 ± 0.069	1.03 ± 0.047	2.79	1	3.16	3.36
HOS BONE	1.01 ± 0.027	1.03 ± 0.012	1.017 ± 0.0066	1.01 ± 0.016	1.02 ± 0.014	1.02 ± 0.023	0.979 ± 0.048	0.858 ± 0.025	1.007 ± 0.0093	0.9937 ± 0.0011	1.01 ± 0.017	0.982 ± 0.0062	1.05 ± 0.022	1.05 ± 0.021	1.05 ± 0.017	1.015 ± 0.0067	1.72	0.874	3.36	3.16
HOSMNG BONE	0.944 ± 0.077	0.974 ± 0.04	0.98 ± 0.021	0.915 ± 0.11	1.04 ± 0.054	1.02 ± 0.13	1.06 ± 0.048	0.991 ± 0.088	1.02 ± 0.035	1.01 ± 0.023	1.02 ± 0.041	1.05 ± 0.033	1.11 ± 0.054	1.18 ± 0.088	1.15 ± 0.062	1.09 ± 0.032	2.33	1.32	3.56	3.34
HS578T BREAST	1.01 ± 0.096	0.937 ± 0.017	1.08 ± 0.13	1.12 ± 0.039	1.17 ± 0.13	1.02 ± 0.052	0.662 ± 0.054	0.243 ± 0.048	0.974 ± 0.073	1.05 ± 0.041	1.03 ± 0.056	0.979 ± 0.091	1.15 ± 0.096	1.02 ± 0.28	1.01 ± 0.053	0.991 ± 0.085	2.21	0.912	3.38	3.13
HT1080 SOFT TISSUE	0.994 ± 0.033	1.02 ± 0.015	1.037 ± 0.0045	0.991 ± 0.048	0.985 ± 0.036	1 ± 0.047	0.943 ± 0.031	0.729 ± 0.055	1.052 ± 0.0076	1.07 ± 0.03	1.063 ± 0.008	1.05 ± 0.016	1.02 ± 0.018	1.04 ± 0.045	0.999 ± 0.015	0.994 ± 0.027	2.11	1.26	3.42	3.16
JURKAT HAEMATOPOIETIC AND LYMPHOID TISSUE	1.07 ± 0.017	1.08 ± 0.025	1.07 ± 0.025	1.07 ± 0.02	1.03 ± 0.098	1.05 ± 0.023	0.779 ± 0.014	0.259 ± 0.043	1.095 ± 0.0049	1.1 ± 0.02	1.09 ± 0.022	1.06 ± 0.018	1.05 ± 0.015	1.06 ± 0.031	1 ± 0.027	0.997 ± 0.039	1.7	0.479	3.49	3.27
KPD BONE	0.964 ± 0.051	0.978 ± 0.045	1.04 ± 0.066	0.976 ± 0.051	1.08 ± 0.06	0.888 ± 0.034	0.65 ± 0.056	0.354 ± 0.014	0.955 ± 0.071	0.975 ± 0.023	0.997 ± 0.048	0.985 ± 0.044	1.04 ± 0.058	1.04 ± 0.067	0.977 ± 0.19	0.938 ± 0.015	1.89	1.5	3.28	3.35
LNCAP PROSTATE	1.03 ± 0.093	0.998 ± 0.083	0.995 ± 0.062	0.922 ± 0.073	0.892 ± 0.11	1.01 ± 0.069	0.854 ± 0.1	0.649 ± 0.051	1.05 ± 0.15	0.962 ± 0.035	0.912 ± 0.089	0.957 ± 0.13	0.979 ± 0.012	0.925 ± 0.053	0.663 ± 0.033	0.497 ± 0.079	1.64	0.892	3.01	3.21
MCF7 BREAST	0.944 ± 0.025	0.905 ± 0.028	0.955 ± 0.017	0.942 ± 0.032	1.01 ± 0.035	1.08 ± 0.053	0.986 ± 0.073	0.953 ± 0.023	0.84 ± 0.029	0.822 ± 0.031	0.866 ± 0.058	0.767 ± 0.038	0.932 ± 0.03	0.992 ± 0.025	0.97 ± 0.014	0.897 ± 0.028	2.3	1.8	2.89	2.83
MDAMB157 BREAST	0.993 ± 0.14	0.975 ± 0.048	0.96 ± 0.09	0.976 ± 0.16	0.979 ± 0.069	0.944 ± 0.12	0.85 ± 0.097	0.526 ± 0.06	0.935 ± 0.093	0.954 ± 0.071	0.933 ± 0.049	1.01 ± 0.079	0.927 ± 0.077	0.952 ± 0.071	0.853 ± 0.044	0.866 ± 0.097	2.28	0.791	3.08	3.03

Source: the supplement of paper PMC6045584
